Assay results published in patent US11266643B2, “Triaryl compounds for treatment of PD-L1 diseases” (CHEMOCENTRYX, INC., priority 2019, dated 2022).

Target: human PD-L1 (Homo sapiens (Human), UniProt Q9NZQ7)
Test: Enzyme-Linked Immunosorbent Assay (ELISA), PD-1/PD-L1 binding
Summary of the method: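 Plates coated with […] human PD-L1 overnight at 4° C, blocked, then 1:5 serial compound dilutions added with human PD-1 […] 0.31 μg/mL for 1 h at 37° C. Bound PD-1 detected with streptavidin-HRP and TMB (20 min, 37° C); absorbance read at 450 nm after H2SO4 stop.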

[1] = human PD-1/PD-L1 ELISA, plates coated with human PD-L1
[2] = PD-1/PD-L1 ELISA, human PD-L1 coated plates, Table 1
[3] = plate-coated human PD-L1, biotinylated Human PD-1, absorbance at 450 nm

Chain of human PD-L1 (Q9NZQ7 19-239): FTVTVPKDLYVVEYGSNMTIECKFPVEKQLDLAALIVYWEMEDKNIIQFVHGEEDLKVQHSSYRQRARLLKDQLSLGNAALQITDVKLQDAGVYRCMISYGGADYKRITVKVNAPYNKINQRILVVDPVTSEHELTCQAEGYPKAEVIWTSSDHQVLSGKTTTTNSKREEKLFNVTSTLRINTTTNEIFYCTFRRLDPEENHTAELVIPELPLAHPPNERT

Row | IC50 [1] | IC50 [2] | Compound | further results
1 | < 10 nM | – | COc1cc(-c2cccc(-c3cccc(NC(=O)c4c[nH]c(=O)n(C)c4=O)c3C)c2C)cc(F)c1CNCC(C)(C)C(N)=O [Example 1.085] | –
2 | – | 10 to 1000 nM | COc1cc(-c2cccc(-c3cccc(NC(=O)C4CCNCC4)c3C)c2C)cc(F)c1CNCCO [Example 1.397] | –
3 | < 10 nM | – | COc1cc(-c2cccc(-c3cccc(NC(=O)c4cccn(C)c4=O)c3C)c2C)cc(F)c1CNCc1c[nH]c(=O)[nH]c1=O [Example 1.097] | –
4 | 10 to 1000 nM | – | COc1cc(-c2cccc(-c3cccc(Nc4nccc5nccnc45)c3C)c2F)cc(F)c1CNCC(C)(C)C(N)=O [Example 1.029] | –
5 | < 10 nM | – | COc1cc(-c2cccc(-c3cccc(NC(=O)c4c[nH]c(=O)n(C)c4=O)c3C)c2C)cc(F)c1CNC[C@H]1CCC(=O)N1 [Example 1.158] | –
6 | – | 10 to 1000 nM | COc1cc(-c2cccc(-c3cccc(NC(=O)c4ccc(F)cn4)c3C)c2C)cc(F)c1CN1CC(C(=O)O)C1 [Example 1.359] | –
7 | – | – | COc1cc(-c2cccc(-c3cccc(Nc4nccc5nccnc45)c3C)c2Cl)cc(F)c1CN[C@H]1CCOC[C@H]1O [Example 2.114] | IC50 [3]: < 10 nM
8 | – | 10 to 1000 nM | COc1cc(-c2cccc(-c3cccc(Nc4cccc5cccnc45)c3C)c2C)cc(F)c1CN1CC(C(=O)O)C1 [Example 1.256] | –
9 | < 10 nM | – | COc1cc(-c2cccc(-c3cccc(NC(=O)c4cn(C)c(=O)n(C)c4=O)c3C)c2C)cc(F)c1CN[C@@H]1CCC(=O)NC1 [Example 1.107] | –
10 | < 10 nM | – | COc1cc(-c2cccc(-c3cccc(NC(=O)c4cn(C)c(=O)n(C)c4=O)c3C)c2C)cc(F)c1CN[C@@H]1CCC[C@H]1O [Example 1.137] | –
11 | – | – | COc1cc(-c2cccc(-c3cccc(NC(=O)c4cn(C)c(=O)n(C)c4=O)c3C)c2Cl)cc(F)c1CN(C)[C@H]1CNC(=O)C1 [Example 2.061] | IC50 [3]: 10 to 1000 nM
12 | – | < 10 nM | COc1cc(-c2cccc(-c3cccc(NC(=O)c4ccc(C)cn4)c3C)c2C)cc(F)c1CN1CC(C(=O)O)C1 [Example 1.371] | –
13 | < 10 nM | – | COc1cc(-c2cccc(-c3cccc(NC(=O)c4cn(C)c(=O)n(C)c4=O)c3C)c2C)cc(F)c1CNCC[C@@H]1CCC(=O)N1 [Example 1.108] | –
14 | – | < 10 nM | COc1cc(-c2cccc(-c3cccc(NC(=O)c4c[nH]c(=O)n(C)c4=O)c3C)c2C)cc(F)c1CNCC1(O)CC1 [Example 1.214] | –
15 | – | – | COc1cc(-c2cccc(-c3cccc(NC(=O)c4cn(C)c(=O)n(C)c4=O)c3C)c2Cl)cc(F)c1CN[C@H]1CCOC1 [Example 2.087] | IC50 [3]: < 10 nM
16 | – | < 10 nM | COc1cc(-c2cccc(-c3cccc(NC(=O)c4ccccn4)c3C)c2C)cc(F)c1CNC(CO)(CO)CO [Example 1.379] | –
17 | < 10 nM | – | COc1cc(-c2cccc(-c3cccc(NC(=O)c4cn(C)c(=O)n(C)c4=O)c3C)c2C)cc(F)c1CN[C@H]1CCC[C@H]1O [Example 1.147] | –
18 | < 10 nM | – | COc1cc(-c2cccc(-c3cccc(NC(=O)c4cncn(C)c4=O)c3C)c2C)cc(F)c1CN[C@@H]1CCC(=O)NC1 [Example 1.102] | –
19 | – | < 10 nM | COc1cc(-c2cccc(-c3cccc(NC(=O)c4c[nH]c(=O)n(C)c4=O)c3C)c2C)cc(F)c1CNCCN [Example 1.234] | –
20 | 10 to 1000 nM | – | COc1cc(-c2cccc(-c3cccc(NC(=O)c4cccn(C)c4=O)c3C)c2C)cc(F)c1CNC1COC1 [Example 1.169] | –
21 | – | < 10 nM | COc1cc(-c2cccc(-c3cccc(NC(=O)c4ccncn4)c3C)c2C)cc(F)c1CNCCCC(=O)O [Example 1.345] | –

Row | IC50 [1] | IC50 [2] | Compound | further results
22 | < 10 nM | – | COc1cc(-c2cccc(-c3cccc(NC(=O)c4cn(C)c(=O)n(C)c4=O)c3C)c2C)cc(F)c1CN[C@H]1CCOC1 [Example 1.039] | –
23 | – | – | COc1cc(-c2cccc(-c3cccc(NC(=O)c4c[nH]c(=O)n(C)c4=O)c3Cl)c2Cl)cc(F)c1CNCC1(C(N)=O)CC1 [Example 2.026] | IC50 [3]: < 10 nM
24 | – | < 10 nM | COc1cc(-c2cccc(-c3cccc(NC(=O)c4c[nH]c(=O)n(C)c4=O)c3C)c2C)cc(F)c1CNCCO [Example 1.270] | –
25 | – | 10 to 1000 nM | COc1cc(-c2cccc(-c3cccc(Nc4nccc5cccnc45)c3C)c2C)cc(F)c1CN1CC(C(=O)O)C1 [Example 1.318] | –
26 | – | < 10 nM | COC(=O)Cc1ccc(C(=O)Nc2cccc(-c3cccc(-c4cc(F)c(CN)c(OC)c4)c3C)c2C)nc1 [Example 1.331] | –
27 | < 10 nM | – | COc1cc(-c2cccc(-c3cccc(Nc4nccc5nccnc45)c3Cl)c2C)cc(F)c1CNC[C@@H]1CCC(=O)N1 [Example 1.019] | –
28 | 10 to 1000 nM | – | COc1cc(-c2cccc(-c3cccc(NC(=O)c4cn(C)c(=O)n(C)c4=O)c3C)c2C)cc(F)c1CNCc1ccnn1C [Example 1.112] | –
29 | – | 10 to 1000 nM | COc1cc(-c2cccc(-c3cccc(NC(=O)C4CCCCO4)c3C)c2C)cc(F)c1CN (stereo not shown) [Example 1.363] | –
30 | < 10 nM | – | COc1cc(-c2cccc(-c3cccc(NC(=O)c4nn(C)c(=O)n(C)c4=O)c3C)c2C)cc(F)c1CNCC(N)=O [Example 1.064] | –
31 | < 10 nM | – | COc1cc(-c2cccc(-c3cccc(NC(=O)c4cn(C)c(=O)n(C)c4=O)c3C)c2C)cc(F)c1CNCCC1CCC(=O)N1 (stereo not shown) [Example 1.115] | –
32 | – | – | COc1cc(-c2cccc(-c3cccc(NC(=O)c4cn(C)c(=O)n(C)c4=O)c3C)c2Cl)cc(F)c1CN[C@@H]1COCC[C@H]1O [Example 2.086] | IC50 [3]: < 10 nM
33 | – | 1000 to 10000 nM | COc1cc(-c2cccc(-c3cccc(NC(=O)c4cc(C(=O)O)[nH]n4)c3C)c2C)cc(F)c1CN [Example 1.304] | –
34 | < 10 nM | – | COc1cc(-c2cccc(-c3cccc(NC(=O)c4cn(C)c(=O)n(C)c4=O)c3C)c2F)cc(F)c1CN[C@@H]1CCOC[C@@H]1O [Example 1.016] | –
35 | – | – | COc1cc(-c2cccc(-c3cccc(NC(=O)c4cn(C)c(=O)n(C)c4=O)c3Cl)c2Cl)cc(F)c1CNC(C)C [Example 2.063] | IC50 [3]: < 10 nM
36 | – | – | CCOc1cc(-c2cccc(-c3cccc(NC(=O)c4cn(C)c(=O)n(C)c4=O)c3Cl)c2Cl)cc(F)c1CN[C@@H]1CCOC[C@@H]1O [Example 2.037] | IC50 [3]: < 10 nM
37 | < 10 nM | – | COc1cc(-c2cccc(-c3cccc(NC(=O)c4cccn(C)c4=O)c3C)c2C)cc(F)c1CNC(C)(C)CO [Example 1.150] | –
38 | – | – | COc1cc(-c2cccc(-c3cccc(NC(=O)c4cn(C)c(=O)n(C)c4=O)c3Cl)c2Cl)cc(F)c1CN1CCC(C(=O)O)CC1 [Example 2.004] | IC50 [3]: < 10 nM
39 | – | – | COc1cc(-c2cccc(-c3cccc(NC(=O)c4c[nH]c(=O)n(C)c4=O)c3C)c2Cl)cc(F)c1CN[C@H]1CCC(=O)NC1 [Example 2.032] | IC50 [3]: < 10 nM
40 | – | – | COc1cc(-c2cccc(-c3cccc(NC(=O)c4cn(C)c(=O)n(C)c4=O)c3C)c2C)cc(F)c1CN[C@H]1CCOC[C@H]1O [Example 2.097] | IC50 [3]: < 10 nM
41 | – | – | COc1cc(-c2cccc(-c3cccc(NC(=O)c4cn(C)c(=O)n(C)c4=O)c3C)c2Cl)cc(F)c1CN1CC(C)(C(=O)O)C1 [Example 2.017] | IC50 [3]: < 10 nM
42 | – | – | COc1cc(-c2cccc(-c3cccc(NC(=O)c4cn(C)c(=O)n(C)c4=O)c3Cl)c2Cl)cc(F)c1CN[C@H]1COC[C@H]1O [Example 2.074] | IC50 [3]: < 10 nM

Row | IC50 [1] | IC50 [2] | Compound | further results
43 | < 10 nM | – | COc1cc(-c2cccc(-c3cccc(NC(=O)c4cncn(C)c4=O)c3C)c2C)cc(F)c1CNC1CCOC1 (stereo not shown) [Example 1.139] | –
44 | – | – | COc1cc(-c2cccc(-c3cccc(NC(=O)c4cn(C)c(=O)n(C)c4=O)c3C)c2Cl)cc(F)c1CN[C@H]1CCCOC1 [Example 2.080] | IC50 [3]: < 10 nM
45 | – | 10 to 1000 nM | COc1cc(-c2cccc(-c3cccc(Nc4nccn5ccnc45)c3C)c2C)cc(F)c1CN1CC(C(=O)O)C1 [Example 1.249] | –
46 | < 10 nM | – | COc1cc(-c2cccc(-c3cccc(NC(=O)c4cn(C)c(=O)n(C)c4=O)c3C)c2F)cc(F)c1CNC[C@@H]1CCC(=O)N1 [Example 1.021] | –
47 | – | 10 to 1000 nM | COc1cc(-c2cccc(-c3cccc(NC(=O)c4ccc(C(=O)O)cn4)c3C)c2C)cc(F)c1CNCCO [Example 1.333] | –
48 | – | 10 to 1000 nM | COc1cc(-c2cccc(-c3cccc(NC(=O)c4ccccn4)c3F)c2C)cc(F)c1CN1CC(C(=O)O)C1 [Example 1.370] | –
49 | < 10 nM | – | COc1cc(-c2cccc(-c3cccc(NC(=O)c4cn(C)c(=O)n(C)c4=O)c3C)c2C)cc(F)c1CNC1COC1 [Example 1.177] | –
50 | 10 to 1000 nM | – | COc1cc(-c2cccc(-c3cccc(NC(=O)c4nn(C)c(=O)n(C)c4=O)c3C)c2C)cc(F)c1CN[C@@H]1CCC(=O)NC1=O [Example 1.058] | –
51 | – | – | COc1c(CNC[C@@H]2CCC(=O)N2)ccc(-c2cccc(-c3cccc(NC(=O)c4cn(C)c(=O)n(C)c4=O)c3Cl)c2Cl)c1F [Example 2.001] | IC50 [3]: < 10 nM
52 | < 10 nM | – | COc1cc(-c2cccc(-c3cccc(Nc4nccc5nccnc45)c3C)c2Cl)cc(F)c1CNC[C@@H]1CCC(=O)N1 [Example 1.027] | –
53 | – | < 10 nM | COc1cc(-c2cccc(-c3cccc(Nc4nccc5nccnc45)c3C)c2C)cc(F)c1CN1CC(O)C1 [Example 1.231] | –
54 | 10 to 1000 nM | – | COc1cc(-c2cccc(-c3cccc(NC(=O)c4cn(C)c(=O)n(C)c4=O)c3C)c2C)cc(F)c1CN(C)[C@H]1CNC(=O)C1 [Example 1.126] | –
55 | – | 10 to 1000 nM | COc1cc(-c2cccc(-c3cccc(NC(=O)C4CCN(CCO)CC4)c3C)c2C)cc(F)c1CN [Example 1.393] | –
56 | – | – | COc1cc(-c2cccc(-c3cccc(Nc4nccc5nccnc45)c3C)c2Cl)cc(F)c1CNCC(C)(C)C(N)=O [Example 2.113] | IC50 [3]: < 10 nM
57 | < 10 nM | – | COc1cc(-c2cccc(-c3cccc(NC(=O)c4nn(C)c(=O)n(C)c4=O)c3C)c2C)cc(F)c1CNCC[C@@H]1CCC(=O)N1 [Example 1.088] | –
58 | – | – | COc1cc(-c2cccc(-c3cccc(NC(=O)c4cn(C)c(=O)n(C)c4=O)c3Cl)c2Cl)cc(F)c1CN[C@@H]1CCC(=O)NC1 [Example 2.107] | IC50 [3]: < 10 nM
59 | – | 10 to 1000 nM | COc1cc(-c2cccc(-c3cccc(Nc4nccc5c4C(=O)N(C)CC5)c3C)c2C)cc(F)c1CN1CC(C(=O)OC(C)C)C1 [Example 1.219] | –
60 | – | < 10 nM | COc1cc(-c2cccc(-c3cccc(NC(=O)c4ccc(CO)cn4)c3C)c2C)cc(F)c1CN1CC(C(=O)O)C1 [Example 1.342] | –
61 | – | < 10 nM | COc1cc(-c2cccc(-c3cccc(NC(=O)c4c[nH]c(=O)n(C)c4=O)c3C)c2C)cc(F)c1CNC[C@@H](C)O [Example 1.222] | –
